In article PMC12766724, “Synthesis, Anthelmintic Activity, and Mechanism of Action of 5‑Aryl‑1H‑indoles” (Journal of Agricultural and Food Chemistry, 2025):
Where two headings read alike, the source gives them in different places.

Tests used:
[1] = tested on: C. elegans wild-type N2; test: Microscopic scoring (score 1-5) of worm populations prior to the Chitinase assay, L1 exposed 4 days; format: in vivo, Caenorhabditis elegans; settings: 50 μM; score 1 (dead/arrested L1) to 5 (healthy)
Excerpt: Dead or mostly immobile worms, arrested at the L1 stage, received a score of 1. Populations with severely delayed development were scored as 2. More developmentally advanced, but still obviously delayed worms were given the score of 3. Adult worms that produce a noticeably lower number of progeny received a score of 4. Healthy worms that reproduce normally (i.e., hundreds of eggs and larvae are present) were scored as 5 (see Figure C for representative images). In a typical, correctly prepared experiment, vehicle-treated populations should receive a score of 5, while worms treated with ivermectin (positive control) should receive a score of 1.
(§1) After exposing L1 larvae to the compounds for 4 days, we observed the populations under a microscope and measured the Chitinase activity. The larvae produce the enzyme while hatching, and its activity is indicative of the reproductive capacity of the worms. Populations that fail to reproduce due to acute or reproductive toxicity or developmental abnormalities are detected.

[2] = tested on: C. elegans N2 wild-type; test: Chitinase assay (reproductive capacity); format: in vivo, Caenorhabditis elegans
Experimental: (§2) The effect of compounds on C. elegans was evaluated using the Chitinase assay as we described previously.
as §1

[3] = tested on: C. elegans CB211 lev-1(e211) IV.; test: Chitinase assay (reproductive capacity); format: in vivo; settings: Caenorhabditis elegans; levamisole-resistant strain
Experimental: (§3) C. elegans strains used in this study were N2 (wild-type), levamisole-resistant strains ZZ15 (lev-8(x15) X) and […] (lev-1(e211) IV), ivermectin-resistant strain DA1316 (avr-14(ad1305) I; avr-15(vu227) glc-1(pk54) V), mebendazole-resistant strain […] (ben-1(e1880) III), and three strains with mutations in succinate dehydrogenase, RP2699, RP2700, and RP2702. The worms were cultivated on Nematode Growth Medium agar plates seeded with Escherichia coli OP50 in 20 °C according to the standard cultivation protocols. Strains RP2699, RP2700, and RP2702 were generated by Prof. Peter Roy’s group. All other strains and bacteria were purchased from the Caenorhabditis Genetics Center (CGC, Minneapolis, MN).
as §2
(§4) Lastly, strain DA1316 has mutations in three genes encoding subunits of the glutamate-gated chloride channel and is highly resistant to avermectins.

[4] = tested on: C. elegans CB3474 ben-1(e1880) III.; test: Chitinase assay (reproductive capacity); format: in vivo; settings: Caenorhabditis elegans; mebendazole-resistant strain
Experimental: as §3, §2, §4

[5] = tested on: C. elegans DA1316 avr-14(ad1305) I; avr-15(vu227) glc-1(pk54) V.; test: Chitinase assay (reproductive capacity); format: in vivo; settings: Caenorhabditis elegans; ivermectin-resistant strain
Experimental: as §3, §2, §4

[6] = tested on: C. elegans ZZ15 lev-8(x15) X.; test: Chitinase assay (reproductive capacity); format: in vivo; settings: Caenorhabditis elegans; levamisole-resistant strain
Experimental: as §3, §2, §4

[7] = tested on: age unsynchronized Ditylenchus destructor; test: Motility on WMicrotracker ONE; format: in vivo
Experimental: Populations of D. destructor, kindly provided by Central Institute for Supervising and Testing in Agriculture, the Ministry of Agriculture of the Czech Republic, were maintained according to the protocol previously described here.
(§5) The effect of compounds on motility of H. contortus, D. destructor, and H. schachtii was evaluated using the WMicrotracker ONE platform according to previously published protocols. ,
(§6) The instrument evaluates the activity of small animals by counting how many times infrared light microbeams passing through the wells of a microtiter plate are interrupted. In age-unsynchronized populations of D. destructor, we observed reduced motility of worm populations treated with the halogenated derivatives i-19, i-20, and i-21 (Figures A, S2.1A, S2.2A and Table S2.1). […] The decreases in mean activity counts after 72 h of treatment at 100 μM were 85% and 97%, respectively.

[8] = tested on: Heterodera schachtii second-stage juveniles (J2); test: Motility on WMicrotracker ONE; format: in vivo
Experimental: H. schachtii was maintained on mustard (Sinapsis alba cv. Albatros) roots grown in vitro on modified KNOP medium according to the previously published protocols. ,
as §5, §6

[9] = tested on: Arabidopsis thaliana Col-0; test: Germination rate and phytotoxicity; format: in vivo; settings: for average fraction of germinated seeds: 5 DPS; for main root length / plant weight: 10 DPS
Experimental: Wild-type A. thaliana (Col-0 ecotype) seeds were sterilized with 70% EtOH with 0.1% Tween-20 solution (2 × 1 mL) for 10 min, rinsed with 96% EtOH (1 × 1 mL) for 10 min, and kept in the fridge (4 °C in the dark). Seeds were sown on a sterile 1/2 MS medium supplemented with 0.3% DMSO as a mock and test compounds at 5, 10, 50, and 100 μM concentrations in 0.3% DMSO. Plates were kept in long-day light conditions (22 °C/20 °C, 16 h light/8 h dark, 100 μmol m^–2 s^–1). After 5 days, the germination rate was evaluated. After an additional 5 days, primary root growth was measured with ImageJ software (https://imagej.nih.gov/ij/), and seedlings were weighted.

[10] = tested on: Skin fibroblasts (BJ); test: Resazurin assay, 3-day treatment; format: cell-based, human; settings: BJ
Experimental: Skin fibroblasts (BJ) were obtained from the American Type Culture Collection (ATCC, Manassas, VA), while human keratinocytes (HaCaT) were sourced from the German Cancer Research Center in Heidelberg, Germany. Cells were cultured in a standard DMEM medium from Sigma-Aldrich, supplemented with 10% fetal bovine serum, 2 mM glutamine, 100 U/mL penicillin, and 100 μg/mL streptomycin. Cultures were maintained under standard conditions (37 °C, 5% CO2, humidified atmosphere) and subcultured two to three times per week. We assessed the effect of 3-day compound treatments on cell viability using a resazurin reduction assay measuring mitochondrial activity. Approximately 5,000 cells in 80 μL of culture medium were seeded into the wells of a 96-well plate. Twenty-four hours later, 20 μL of 5-fold concentrated test compound solutions was added and tested across three concentrations prepared through 2-fold serial dilutions. The highest final concentration was 40 μM. After 72 h, we added an 11-fold concentrated resazurin solution to the wells, achieving a final concentration of 0.0125 μM. Fluorescence (ex = 570 nm, em = 610 nm) was measured after 3 h of incubation. […]

[11] = tested on: human keratinocytes (HaCaT); test: Resazurin assay, 3-day treatment; format: cell-based
Experimental: Skin fibroblasts (BJ) were obtained from the American Type Culture Collection (ATCC, Manassas, VA), while human keratinocytes (HaCaT) were sourced from the German Cancer Research Center in Heidelberg, Germany. Cells were cultured in a standard DMEM medium from Sigma-Aldrich, supplemented with 10% fetal bovine serum, 2 mM glutamine, 100 U/mL penicillin, and 100 μg/mL streptomycin. Cultures were maintained under standard conditions (37 °C, 5% CO2, humidified atmosphere) and subcultured two to three times per week. We assessed the effect of 3-day compound treatments on cell viability using a resazurin reduction assay measuring mitochondrial activity. Approximately 5,000 cells in 80 μL of culture medium were seeded into the wells of a 96-well plate. Twenty-four hours later, 20 μL of 5-fold concentrated test compound solutions was added and tested across three concentrations prepared through 2-fold serial dilutions. The highest final concentration was 40 μM. After 72 h, we added an 11-fold concentrated resazurin solution to the wells, achieving a final concentration of 0.0125 μM. Fluorescence (ex = 570 nm, em = 610 nm) was measured after 3 h of incubation.
The disubstituted derivatives i-25 and i-27 were the most toxic in the set, causing around a 50% decrease in viability of HaCaT cells at 40 μM.

[12] = 10 µM group, initial (prior to the treatment)
[13] = 50 µM group, initial (prior to the treatment)
[14] = 100 µM group, initial (prior to the treatment)

| SMILES | average score [1] | IC50 ([2]; Caenorhabditis elegans) [µM] | IC50 [3] [µM] | IC50 [4] [µM] | IC50 [5] [µM] | IC50 [6] [µM] | average activity counts [7, 12] | average activity counts ([7]; 10 µM, 48 h) | average activity counts ([7]; 10 µM, 72 h) | average activity counts [7, 13] | average activity counts ([7]; 50 µM, 48 h) | average activity counts ([7]; 50 µM, 72 h) | average activity counts [7, 14] | average activity counts ([7]; 100 µM, 48 h) | average activity counts ([7]; 100 µM, 72 h) | average activity counts [8, 12] | average activity counts ([8]; 10 µM, 48 h) | average activity counts ([8]; 10 µM, 72 h) | average activity counts [8, 13] | average activity counts ([8]; 50 µM, 48 h) | also measured |
| --- | --- | --- | --- | --- | --- | --- | --- | --- | --- | --- | --- | --- | --- | --- | --- | --- | --- | --- | --- | --- | --- |
| CCOc1ccc(-c2ccc3[nH]ccc3c2)cc1 [i-10] | 1.8 |  |  |  |  |  |  |  |  |  |  |  |  |  |  |  |  |  |  |  |  |
| CCOc1cc(-c2ccc3[nH]ccc3c2)ccc1Cl [i-25] |  | 9.74 ± 1.65 | 9.36 ± 0.43 | 7.79 ± 0.36 | 9.93 ± 0.68 | 8.72 ± 0.13 | 234 | 221 | 194 | 246 | 209 | 197 | 230 | 210 | 203 | 174 | 160 | 171 | 178 | 184 | average activity counts ([8]; 50 µM, 72 h): 170; average activity counts [8, 14]: 172; average activity counts ([8]; 100 µM, 48 h): 195; average activity counts ([8]; 100 µM, 72 h): 190; average fraction of germinated seeds ([9]; 5 µM): 0.98; main root length ([9]; 5 µM): 38.29 mm; plant weight ([9]; 5 µM): 30.25 mg; average fraction of germinated seeds ([9]; 10 µM): 0.95; main root length ([9]; 10 µM): 38.15 mm; plant weight ([9]; 10 µM): 31.97 mg; average fraction of germinated seeds ([9]; 50 µM): 0.96; main root length ([9]; 50 µM): 34.25 mm; plant weight ([9]; 50 µM): 27.79 mg; Average viability (signal intensity relative to control) ([10]; 10 µM): 0.92 ± 0.01; Average viability (signal intensity relative to control) ([10]; 20 µM): 0.9 ± 0.05; Average viability (signal intensity relative to control) ([10]; 40 µM): 0.74 ± 0.06; Average viability (signal intensity relative to control) ([11]; 10 µM): 0.93 ± 0.02; Average viability (signal intensity relative to control) ([11]; 20 µM): 0.88 ± 0.06; Average viability (signal intensity relative to control) ([11]; 40 µM): 0.53 ± 0.1; decrease in viability ([11]; 40 µM): ~50% |
| CCCOc1ccccc1-c1ccc2[nH]ccc2c1 [i-11] | 1.5 |  |  |  |  |  |  |  |  |  |  |  |  |  |  |  |  |  |  |  |  |
| CC(C)Oc1cccc(-c2ccc3[nH]ccc3c2)c1 [i-15] |  | < 10 | 8.86 ± 0.9 | 10.2 ± 0.51 | 9.1 ± 2.21 | 8.55 ± 1.04 | 224 | 201 | 224 | 226 | 198 | 218 | 217 | 199 | 206 | 169 | 191 | 164 | 188 | 193 | IC50 [2]: 7.93 ± 0.66 µM; average activity counts ([8]; 50 µM, 72 h): 144; average activity counts [8, 14]: 195; average activity counts ([8]; 100 µM, 48 h): 212; average activity counts ([8]; 100 µM, 72 h): 175; average fraction of germinated seeds ([9]; 5 µM): 0.98; main root length ([9]; 5 µM): 36.67 mm; plant weight ([9]; 5 µM): 35.21 mg; average fraction of germinated seeds ([9]; 10 µM): 0.93; main root length ([9]; 10 µM): 36.13 mm; plant weight ([9]; 10 µM): 31.55 mg; average fraction of germinated seeds ([9]; 50 µM): 0.95; main root length ([9]; 50 µM): 35.01 mm; plant weight ([9]; 50 µM): 29.94 mg; Average viability (signal intensity relative to control) ([10]; 10 µM): 1 ± 0.03; Average viability (signal intensity relative to control) ([10]; 20 µM): 1.03 ± 0.04; Average viability (signal intensity relative to control) ([10]; 40 µM): 0.98 ± 0.05; Average viability (signal intensity relative to control) ([11]; 10 µM): 1.01 ± 0.04; Average viability (signal intensity relative to control) ([11]; 20 µM): 1.04 ± 0.05; Average viability (signal intensity relative to control) ([11]; 40 µM): 1.01 ± 0.05 |
| CCOc1ccccc1-c1ccc2[nH]ccc2c1 [i-8] | 2.5 |  |  |  |  |  |  |  |  |  |  |  |  |  |  |  |  |  |  |  |  |
